# Assay results taken from PubChem BioAssay (NCI).
# Values joined by “and” are separate entries in the source; they are usually repeats but may differ in a detail not shown here. Equal entries are not always repeated.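 Five compound concentrations were applied to cells in 96-well plates for 48 hours; endpoints were derived by simple linear interpolation of the resulting dose-response curve. At the GI50, growth is halved. At the TGI there is no net growth.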
# System: MDA-MB-468 breast
# Experiment: DTP human tumour cell line panel, 48 h
SMILES,GI50,TGI
N=C(N)c1ccc(-c2ccc(-c3cccs3)s2)cc1F,46.4 nM,256 nM
CCCN1CCCC(c2ccc(Nc3nc(Nc4cc(F)ccc4C(N)=O)c4cc[nH]c4n3)c(OC)c2)C1 (stereo not given),3250 nM,6730 nM
N#CSc1c[nH]c2cccc(/C=C/C(=O)/C=C(O)/C=C/c3cccc4[nH]cc(SC#N)c34)c12,496 nM,1220 nM
OC1(c2ccccc2)c2ccccc2N(c2ccccc2)c2ccc(Cl)cc21 (stereo not given),86.4 nM,317 nM
O=C1Nc2ccc(I)cc2/C1=C/c1cc(Br)c(O)c(Br)c1,> 18900 nM and 15900 nM,> 25000 nM and 57500 nM
CCOc1ccc(-c2nc3ccc(-c4nc5ccc(N6CCN(C)CC6)cc5[nH]4)cc3[nH]2)cc1OCC,1580 nM,4600 nM
Nc1nc(N)c2nc(CNc3ccc(C(=O)NC(CCC(=O)O)C(=O)O)cc3)cnc2n1 (stereo not given),35.7 nM and < 10 nM,> 100000 nM
CC1(C)CC[C@]2(C(=O)O)CC[C@]3(C)C(=CC[C@@H]4[C@@]5(C)C/C(=C/c6cccnc6)[C@H](O)C(C)(C)[C@@H]5CC[C@]43C)[C@@H]2C1,17100 nM,88300 nM
COc1cc2nc(NC3CCC3)nc(NC3CCN(C(C)C)CC3)c2cc1OC,1370 nM,2850 nM
FC(F)(F)c1ccc(-c2cnc(-c3nn[nH]n3)nc2NC2CCCCCC2)cc1,> 10000 nM,> 10000 nM
CN1CCN(c2ccc(Nc3nc(NCCCNS(=O)(=O)c4cccc(F)c4)c4sccc4n3)cc2)CC1,2590 nM,10900 nM
COc1cc(-c2nn(-c3cccc(NC(=O)NCCNC(=O)c4ccccc4)c3)cc2-c2ccncc2)ccc1Cl,3140 nM,> 100000 nM
N/C(=N\O)c1cn(C2OC(CO)C(O)C2O)c2ncnc(N)c12 (stereo not given),126 nM,453 nM
CCCCCCCCCCCCNC(=O)N[C@H](C(=O)N[C@H]1/C=C/OCCNC(=O)/C=C/[C@H](C(C)C)NC1=O)C(C)C,898 nM,6740 nM
CNC(=S)N/N=C/CSC/C=N/NC(=S)NC,> 100000 nM,> 100000 nM
CCc1ccc2cc3c(ccc4ccccc43)c3c2c1CC3,481 nM,> 100000 nM
O=c1c2cc(F)ccc2sc2c(NCCCNCCO)nc3ccc(F)cc3c12,1780 nM,3470 nM
COc1cccc(-c2cc(-c3ccc(Nc4nc(Nc5ccc(Cl)cc5)nc(Nc5ccc(Cl)cc5)n4)cc3)nc(N)c2C#N)c1,2180 nM,4790 nM
O=c1[nH]c(-c2ccncc2)nc2sc3c(c12)CCCCCC3,> 100000 nM,> 100000 nM
COc1cnc2c(c1)C(=O)c1c-2n(CCCN2CCNCC2)c(=O)c2cc(F)ccc12,205 nM,784 nM
CC(C)OC(=O)OCOP(=O)(OCOC(=O)OC(C)C)C1CCCN(O)C1=O (stereo not given),1610 nM,> 100000 nM
Nc1c2ccccc2nc2ccccc12,1060 nM and 1150 nM,2850 nM and 2880 nM
CCN(CC)c1ccc(C=C2C(=O)NC(=S)NC2=O)cc1,2370 nM,5560 nM
COc1ncc(-c2ccc3nc(N)n(-c4ccccc4C(F)(F)F)c(=O)c3c2)cc1S(=O)(=O)Nc1ccc(F)cc1F,853 nM,2920 nM
CN(C)CCCn1c2c(c3ccc(N4CCNCC4)cc3c1=O)C(=O)c1ccccc1-2,949 nM,2410 nM
Cc1n[nH]c(C)c1-c1c(C)n[nH]c1C,1960 nM,4750 nM

SMILES,GI50,TGI
CC[C@@]12CC(C(=O)OC)=C3Nc4ccccc4[C@@]34CCN(C[C@H]3O[C@H]31)[C@@H]24,21500 nM,98700 nM
C=C1C(=O)O[C@H]2[C@H]1CC/C(COC(=O)NCc1ccc(Cn3c(=O)sn(CCCI)c3=O)cc1)=C\CC[C@@]1(C)O[C@@H]21,1540 nM,3480 nM
NC1=Nc2cc(OCCCCN3Cc4ccccc4C3)c(OCC3CC3)cc2C12CCCC2,1250 nM,2750 nM
CN1CC[C@H](N(C)C(=O)N2CC(c3cc(F)ccc3F)=C[C@@]2(CO)c2ccccc2)[C@H](F)C1,5.14 nM,
CC1(C)CCC(c2ccc(Cl)cc2)=C(CN2CCN(c3ccc(C(=O)NS(=O)(=O)c4ccc(N[C@H](CCN5CCOCC5)CSc5ccccc5)c(S(=O)(=O)C(F)(F)F)c4)cc3)CC2)C1,770 nM,2640 nM
Cc1cc(C)c(CNC(=O)c2cc(Cl)c3c(c2C)O[C@@](C)(C2CCC(N(C)C)CC2)O3)c(=O)[nH]1 (stereo not given in full),24100 nM,> 100000 nM
CC(=O)Nc1ccc(S(=O)(=O)N2C(=O)CCC2C(=O)Nc2ccccc2)cc1 (stereo not given),1760 nM,19200 nM
CN(C)c1ccc(-c2cc(-c3cccc(NS(C)(=O)=O)c3)nc(N)c2C#N)cc1,268 nM,1170 nM
C=C(C)[C@@H]1CC[C@]2(C(=O)OC)CC[C@]3(C)[C@H](CC[C@@H]4[C@@]5(C)CC/C(=N\OCCC(=NCCC#N)NOCCC#N)C(C)(C)[C@@H]5CC[C@]43C)[C@@H]12,2020 nM,> 50000 nM
N#Cc1cccc(/C(N)=N/C(N)=N/c2nc3ccccc3s2)c1,415 nM,
CCn1nc(C#Cc2c(C)ccc3c(Nc4ccc(Cl)cc4)nccc23)c2c(N)ncnc21,2250 nM,10500 nM
CC(C)c1c(C(=O)Nc2ccccc2)c(-c2ccccc2)c(-c2ccc(F)cc2)n1CC[C@@H](O)C[C@@H](O)CC(=O)O,9320 nM,68900 nM
O=c1[nH]c2c(ccc3cnccc32)c2c1CCC2,206 nM,549 nM
Nc1ncnc2c1ncn2C1SC(CO)C(O)C1O (stereo not given),19400 nM,58000 nM
COc1cc(C(=O)N[C@@H]2CCCN(C)C2)ccc1Nc1ncc2c(n1)N(C1CCCC1)CC(C)(C)C(=O)N2C,17.7 nM,3390 nM
Cc1ccc(CNc2ccc(Cl)cc2NCc2ccc(C)c(O)c2)cc1O,8050 nM,16800 nM
C=CN(C(=O)N1CCN(c2cc3c(cc2F)c(=O)c(C(=O)O)cn3C2CC2)CC1)c1nc(-c2ccc(C)cc2)cs1,2860 nM,9140 nM
COc1cc(F)c(F)c(F)c1C(=O)c1cnc(NC2CCN(S(C)(=O)=O)CC2)nc1N,2300 nM,7270 nM
COC(=O)[C@@H](C)C[C@H](Cc1ccccc1)NC(=O)c1nc([C@@H](C[C@H](C(C)C)N(C)C(=O)[C@@H](NC(=O)[C@H]2CC(=O)CCN2C)C(C)C)OC(C)=O)sc1C(C)C,25.8 nM,129 nM
Fc1cnccc1-c1nc2ccc3[nH]ncc3c2c2c1CCCC2,1050 nM,7860 nM
Cc1ccccc1C1N=C2Oc3ccccc3C=C2C(=O)N1 (stereo not given),524 nM,> 100000 nM
CC/C(=C\c1ccc(N(C)C)cc1)c1ccncc1,2270 nM,7320 nM
CC1(C)N=C(N)N=C(N)N1c1cccc(CC(=O)Nc2ccccc2)c1,22100 nM,> 100000 nM
Nc1nc(-c2ccccn2)c(-c2ccc3ncccc3n2)s1,> 25000 nM,> 25000 nM
COc1ccc(-c2cc(-c3ccc(Cl)cc3)c(C#N)c(=O)n2CCCCCC(=O)Nc2ccccc2N)cc1,3240 nM,31500 nM
